pEC50, pIC50: −log10 of the molar value.
How the values were obtained:
[1] = biological target: T1, HBV core protein (C-terminal truncated, 149 aa assembly domain) (Hepatitis B virus genotype D subtype adw, UniProt P03147, C107A/C48A/C61A); assay: Biochemical capsid assembly assay (fluorescence quenching); conditions: BODIPY-FL labelled core protein, assembly started with NaCl, read after 6 min; read-out: Assembly Activity
T1 construct: The C-terminal truncated core protein containing 149 amino acids of the N-terminal assembly domain; made in house; host or cells: E. coli BL21 (DE3) Rosetta2, plasmid pET21b
Protocol: Biochemical Capsid Assembly Assay
The screening for assembly effector activity was done based on a fluorescence quenching assay published by Zlotnick et al. (2007). The C-terminal truncated core protein containing 149 amino acids of the N-terminal assembly domain fused to a unique cysteine residue at position 150 and was expressed in E. coli using the pET expression system (Merck Chemicals, Darmstadt). Purification of core dimer protein was performed using a sequence of size exclusion chromatography steps. In brief, the cell pellet from 1 L BL21 (DE3) Rosetta2 culture expressing the coding sequence of core protein cloned NdeI/XhoI into expression plasmid pET21b was treated for 1 h on ice with a native lysis buffer (Qproteome Bacterial Protein Prep Kit; Qiagen, Hilden). After a centrifugation step the supernatant was precipitated during 2 h stirring on ice with 0.23 g/ml of solid ammonium sulfate. Following further centrifugation the resulting pellet was resolved in buffer A (100 mM Tris, pH 7.5; 100 mM NaCl; 2 mM DTT) and was subsequently loaded onto a buffer A equilibrated CaptoCore 700 column (GE HealthCare, Frankfurt). The column flow through containing the assembled HBV capsid was dialyzed against buffer N (50 mM NaHCO3 pH 9.6; 5 mM DTT) before urea was added to a final concentration of 3M to dissociate the capsid into core dimers for 1.5 h on ice. The protein solution was then loaded onto a 1 L Sephacryl 5300 column. After elution with buffer N core dimer containing fractions were identified by SDS-PAGE and subsequently pooled and dialyzed against 50 mM HEPES pH 7.5; 5 mM DTT. To improve the assembly capacity of the purified core dimers a second round of assembly and disassembly starting with the addition of 5 M NaCl and including the size exclusion chromatography steps described above was performed. From the last chromatography step core dimer containing fractions were pooled and stored in aliquots at concentrations between 1.5 to 2.0 mg/ml at −80° C.
Immediately before labelling the core protein was reduced by adding freshly prepared DTT in a final concentration of 20 mM. After […] on ice storage buffer and DTT was removed using a Sephadex G-25 column (GE HealthCare, Frankfurt) and 50 mM HEPES, pH 7.5. For labelling 1.6 mg/ml core protein was incubated at 4° C. and darkness overnight with BODIPY-FL maleimide (Invitrogen, Karlsruhe) in a final concentration of 1 mM. After labelling the free dye was removed by an additional desalting step using a Sephadex G-25 column. Labelled core dimers were stored in aliquots at 4° C. In the dimeric state the fluorescence signal of the labelled core protein is high and is quenched during the assembly of the core dimers to high molecular capsid structures. The screening assay was performed in black 384 well microtiter plates in a total assay volume of 10 μl using 50 mM HEPES pH 7.5 and 1.0 to 2.0 μM labelled core protein. Each screening compound was added in 8 different concentrations using a 0.5 log-unit serial dilution starting at a final concentration of 100 μM, 31.6 μM or 10 μM, In any case the DMSO concentration over the entire microtiter plate was 0.5%. The assembly reaction was started by the injection of NaCl to a final concentration of […] which induces the assembly process to approximately 25% of the maximal quenched signal. 6 min after starting the reaction the fluorescence signal was measured using a Clariostar plate reader (BMG Labtech, Ortenberg) with an excitation of 477 nm and an emission of 525 nm. As 100% and 0% assembly control HEPES buffer containing 2.5 M and 0 M NaCl was used. Experiments were performed thrice in triplicates. EC50 values were calculated by non-linear regression analysis using the Graph Pad Prism 6 software (GraphPad Software, La Jolla, USA).

HBV = HBV replication assay: HBV DNA from the supernatants of HepAD38 cells; assay type: cell-based; conditions: Hepatitis B virus, 144 h, HBV DNA in supernatant by qPCR at day 6, read-out: Cell Activity
Protocol: Determination of HBV DNA from the Supernatants of HepAD38 Cells
The anti-HBV activity was analysed in the stable transfected cell line HepAD38, which has been described to secrete high levels of HBV virion particles (Ladner et al., 1997). In brief, HepAD38 cells were cultured at 37° C. at 5% CO2 and 95% humidity in 200 μl maintenance medium, which was Dulbecco's modified Eagle's medium/Nutrient Mixture F-12 (Gibco, Karlsruhe), 10% fetal bovine serum (PAN Biotech Aidenbach) supplemented with 50 μg/ml penicillin/streptomycin (Gibco, Karlsruhe), 2 mM L-glutamine (PAN Biotech, Aidenbach), 400 μg/ml G418 (AppliChem, Darmstadt) and 0.3 μg/ml tetracycline. Cells were subcultured once a week in a 1:5 ratio, but were usually not passaged more than ten times. For the assay 60,000 cells were seeded in maintenance medium without any tetracycline into each well of a 96-well plate and treated with serial half-log dilutions of test compound. To minimize edge effects the outer 36 wells of the plate were not used but were filled with assay medium. On each assay plate six wells for the virus control (untreated HepAD38 cells) and six wells for the cell control (HepAD38 cells treated with 0.3 μg/ml tetracycline) were allocated, respectively. In addition, one plate set with reference inhibitors like BAY 41-4109, entecavir, and lamivudine instead of screening compounds were prepared in each experiment. In general, experiments were performed thrice in triplicates. At day 6 HBV DNA from 100 μl filtrated cell culture supernatant (AcroPrep Advance 96 Filter Plate, […] Supor membran, PALL GmbH, Dreieich) was automatically purified on the MagNa Pure LC instrument using the MagNA Pure 96 DNA and Viral NA Small Volume Kit (Roche Diagnostics, Mannheim) according to the instructions of the manufacturer. EC50 values were calculated from relative copy numbers of HBV DNA In brief, 5 μl of the 100 μl eluate containing HBV DNA were subjected to PCR LC480 Probes Master Kit (Roche) together with 1 μM antisense primer […], 0.5 μM sense primer […], 0.3 μM hybprobes […]-FL and LC640-[…]-PH (TIBMolBiol, Berlin) to a final volume of […]. The PCR was performed on the Light Cycler 480 real time system (Roche Diagnostics, Mannheim) using the following protocol: Pre-incubation for 1 min at 95° C., amplification: 40 cycles×(10 sec at 95° C., 50 sec at 60° C., 1 sec at 70° C.), cooling for 10 sec at 40° C. Viral load was quantitated against known standards using HBV plasmid DNA of pCH-9/3091 (Nassal et al., 1990, Cell 63: 1357-1363) and the LightCycler 480 SW 1.5 software (Roche Diagnostics, Mannheim) and EC50 values were calculated using non-linear regression with GraphPad Prism 6 (GraphPad Software Inc., La Jolla, USA).

T1 sequence (P03147 1-150, looked up, stated change not applied): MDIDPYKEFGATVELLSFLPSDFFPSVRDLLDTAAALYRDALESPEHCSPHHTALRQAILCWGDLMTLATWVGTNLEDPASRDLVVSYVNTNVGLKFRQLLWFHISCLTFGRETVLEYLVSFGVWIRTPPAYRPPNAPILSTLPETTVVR

COCC1(N(C)C(=O)c2[nH]nc3c2CN(C(=O)c2cc4c(Cl)cccn4c2)CC3)CC1 [Example 3, 5-(8-chloroindolizine-2-carbonyl)-N-[1-(methoxymethyl)cyclopropyl]-N-methyl-2H,4H,5H,6H,7H-pyrazolo[4,3-c]pyridine-3-carboxamide]
pIC50 [1]: > 5.30
pEC50 (HBV): > 6.00

COCC1(N(C)C(=O)c2[nH]nc3c2CN(C(=O)c2cc4cccc(Cl)n4c2)CC3)CC1 [Example 4, 5-(5-chloroindolizine-2-carbonyl)-N-[1-(methoxymethyl)cyclopropyl]-N-methyl-2H,4H,5H,6H,7H-pyrazolo[4,3-c]pyridine-3-carboxamide]
pIC50 [1]: 5.00 to 5.30
pEC50 (HBV): > 6.00

COCC1(N(C)C(=O)c2[nH]nc3c2CN(C(=O)c2cc4c(F)cc(F)cn4c2)CC3)CC1 [Example 5, 5-(6,8-difluoroindolizine-2-carbonyl)-N-[1-(methoxymethyl)cyclopropyl]-N-methyl-2H,4H,5H,6H,7H-pyrazolo[4,3-c]pyridine-3-carboxamide]
pIC50 [1]: > 5.30
pEC50 (HBV): > 6.00

CN(C(=O)c1cnn2c1CN(C(=O)c1cc3c(Cl)cccn3c1)CC2)C1(COC(F)F)CC1 [Example 6, 5-(8-chloroindolizine-2-carbonyl)-N-{1-[(difluoromethoxy)methyl]cyclopropyl}-N-methyl-4H,5H,6H,7H-pyrazolo[1,5-a]pyrazine-3-carboxamide]
pIC50 [1]: > 5.30
pEC50 (HBV): > 6.00

CN(C(=O)c1cnn2c1CN(C(=O)c1cc3c(F)cc(F)cn3c1)CC2)C1(COC(F)F)CC1 [Example 7, 5-(6,8-difluoroindolizine-2-carbonyl)-N-{1-[(difluoromethoxy)methyl]cyclopropyl}-N-methyl-4H,5H,6H,7H-pyrazolo[1,5-a]pyrazine-3-carboxamide]
pIC50 [1]: > 5.30
pEC50 (HBV): > 6.00

CN(C(=O)c1cnn2c1CN(C(=O)c1cc3cccc(Cl)n3c1)CC2)C1(COC(F)F)CC1 [Example 8, 5-(5-chloroindolizine-2-carbonyl)-N-{1-[(difluoromethoxy)methyl]cyclopropyl}-N-methyl-4H,5H,6H,7H-pyrazolo[1,5-a]pyrazine-3-carboxamide]
pIC50 [1]: > 5.30
pEC50 (HBV): 5.00 to 6.00

CC1Cn2ncc(C(=O)N(C)C3(COC(F)F)CC3)c2CN1C(=O)c1cc2c(Cl)cccn2c1 (stereo not shown) [Example 9, 5-(8-chloroindolizine-2-carbonyl)-N-{1-[(difluoromethoxy)methyl]cyclopropyl}-N,6-dimethyl-4H,5H,6H,7H-pyrazolo[1,5-a]pyrazine-3-carboxamide]
pIC50 [1]: > 5.30
pEC50 (HBV): > 6.00

CC1Cc2[nH]nc(-c3cscn3)c2CN1C(=O)c1cc2c(Cl)cccn2c1 (stereo not shown) [Example 10, 8-chloro-2-[6-methyl-3-(1,3-thiazol-4-yl)-1H,4H,5H,6H,7H-pyrazolo[4,3-c]pyridine-5-carbonyl]indolizine]
pIC50 [1]: > 5.30
pEC50 (HBV): > 6.00

CC1Cc2[nH]nc(-c3cscn3)c2CN1C(=O)c1cc2cccc(C(F)(F)F)n2c1 (stereo not shown) [Example 12, 2-[6-methyl-3-(1,3-thiazol-4-yl)-1H,4H,5H,6H,7H-pyrazolo[4,3-c]pyridine-5-carbonyl]-5-(trifluoromethyl)indolizine]
pIC50 [1]: > 4.00
pEC50 (HBV): 5.00 to 6.00

Cc1cccc2cc(C(=O)N3Cc4c(-c5cscn5)n[nH]c4CC3C)cn12 (stereo not shown) [Example 16, 5-methyl-2-[6-methyl-3-(1,3-thiazol-4-yl)-1H,4H,5H,6H,7H-pyrazolo[4,3-c]pyridine-5-carbonyl]indolizine]
pIC50 [1]: 5.00 to 5.30
pEC50 (HBV): 5.00 to 6.00

Cc1cccn2cc(C(=O)N3Cc4c(-c5cscn5)n[nH]c4CC3C)cc12 (stereo not shown) [Example 17, 8-methyl-2-[6-methyl-3-(1,3-thiazol-4-yl)-1H,4H,5H,6H,7H-pyrazolo[4,3-c]pyridine-5-carbonyl]indolizine]
pIC50 [1]: > 5.30
pEC50 (HBV): > 6.00

CC1Cc2[nH]nc(-c3cscn3)c2CN1C(=O)c1cc2c(Cl)cc(Cl)cn2c1 (stereo not shown) [Example 18, 6,8-dichloro-2-[6-methyl-3-(1,3-thiazol-4-yl)-1H,4H,5H,6H,7H-pyrazolo[4,3-c]pyridine-5-carbonyl]indolizine]
pIC50 [1]: 5.00 to 5.30
pEC50 (HBV): > 6.00

CC1Cc2[nH]nc(-c3cscn3)c2CN1C(=O)c1cc2cc(Cl)ccn2c1 (stereo not shown) [Example 19, 7-chloro-2-[6-methyl-3-(1,3-thiazol-4-yl)-1H,4H,5H,6H,7H-pyrazolo[4,3-c]pyridine-5-carbonyl]indolizine]
pIC50 [1]: 5.00 to 5.30
pEC50 (HBV): > 6.00

CC1Cc2[nH]nc(-c3cscn3)c2CN1C(=O)c1cc2cccc(Cl)n2c1 (stereo not shown) [Example 20, 5-chloro-2-[6-methyl-3-(1,3-thiazol-4-yl)-1H,4H,5H,6H,7H-pyrazolo[4,3-c]pyridine-5-carbonyl]indolizine]
pIC50 [1]: 5.00 to 5.30
pEC50 (HBV): > 6.00

CC(NC(=O)c1[nH]nc2c1CN(C(=O)c1cc3c(Cl)cccn3c1)CC2)C(F)(F)F (stereo not shown) [Example 49, 5-(8-chloroindolizine-2-carbonyl)-N-(1,1,1-trifluoropropan-2-yl)-2H,4H,5H,6H,7H-pyrazolo[4,3-c]pyridine-3-carboxamide]
pEC50 (HBV): 5.00 to 6.00

CC(NC(=O)c1cnn2c1CN(C(=O)c1cc3ccccn3c1)CC2)C(F)(F)F (stereo not shown) [Example 50, 5-(indolizine-2-carbonyl)-N-(1,1,1-trifluoropropan-2-yl)-4H,5H,6H,7H-pyrazolo[1,5-a]pyrazine-3-carboxamide]
pEC50 (HBV): > 6.00

CC(NC(=O)c1[nH]nc2c1CN(C(=O)c1cc3ccccn3c1)CC2)C(F)(F)F (stereo not shown) [Example 52, 5-(indolizine-2-carbonyl)-N-[1,1,1-trifluoropropan-2-yl]-2H,4H,5H,6H,7H-pyrazolo[4,3-c]pyridine-3-carboxamide]
pEC50 (HBV): > 4.00

From patent US20220227789A1, “NOVEL INDOLIZINE-2-CARBOXAMIDES ACTIVE AGAINST THE HEPATITIS B VIRUS (HBV)” (AiCuris GmbH & Co. KG, priority 2019, published 2022)
